# Experimental data from patent US7790196B2, “Extracellular vesicles from non-pathogenic amoebae useful as vehicle for transferring a molecule of interest to an eukaryotic cell” (Universite Pierre et Marie Curie- Paris VI, priority 2003, dated 2010).
# How the values were obtained:
# [1] = test system: Dd cells; test: Cytotoxicity of the cargo molecule towards growing Dd cells (cell counting during growth); format: cell-based, Dictyostelium discoideum
# Method: The growth curve of Dd cells, continuously maintained with HO342 (10 μg/ml) since the initiation of the culture at a density of 3×10^6 cells/ml is shown on FIG. 3a. Images of Dd cells, fixed in 70% MeOH at different times (from 72 h to 216 h), show the aspect of the cells and of their HO342 stained nuclei. Apoptosis might increase as a function of time along the stationary plateau (Tatischeff et al., 2001), and the characteristic much smaller size of apoptotic cells were predominant for the t′216 fixed Dd cells (FIG. 3a).
# The capacity of Dd cells to internalise different exogenous molecules was studied. Further, their ability to release vesicles, in particular the “12,000” vesicles, carrying a broad-spectrum of molecules of interest was assessed. Flow cytometry and micro-spectrofluorimetry were used to measure respectively the cell internalisation and the vesicle-mediated release of the fluorescent cargo molecule as a function of incubation time in the growth medium. Growing Dd cells were incubated for different periods of time up to 72 h in the presence of the exogenous molecule. Fractions of the cells were fixed in 2% paraformaldehyde after each one of these increasing incubation times. Simultaneously, the externalised “12,000” vesicles were prepared from aliquots of the growth medium and concentrated (×20). […]
# [2] = test system: Leukemic K562 cells; details: Asahi et al., 1995; cited from earlier work
# [3] = test system: Dd cells; test: Vesicle-mediated release of cargo molecule from Dd cells (micro-spectrofluorimetry of “12,000” vesicles); format: cell-based, Dictyostelium discoideum
# Method: The capacity of Dd cells to internalise different exogenous molecules was studied. Further, their ability to release vesicles, in particular the “12,000” vesicles, carrying a broad-spectrum of molecules of interest was assessed. Flow cytometry and micro-spectrofluorimetry were used to measure respectively the cell internalisation and the vesicle-mediated release of the fluorescent cargo molecule as a function of incubation time in the growth medium. Growing Dd cells were incubated for different periods of time up to 72 h in the presence of the exogenous molecule. Fractions of the cells were fixed in 2% paraformaldehyde after each one of these increasing incubation times. Simultaneously, the externalised “12,000” vesicles were prepared from aliquots of the growth medium and concentrated (×20). As controls, Dd cells were grown in parallel without the cargo molecule and handled the same. Moreover, cell counting during growth allowed to check for any cytotoxicity of the studied molecule as a function of time. Cell and vesicle samples were kept at 4° C. until measurements.
smiles,measurement,setting,value
Cc1cc(O)c2c(=O)c3c(O)cc(O)c4c5c(O)cc(O)c6c(=O)c7c(O)cc(C)c8c1c2c(c34)c(c78)c65 [hypericin],toxicity towards Dd cells,[1]; hypericin 25 μM in growth medium,without any apparent toxicity
CCCCCC(=O)c1c(O)c(Cl)c(OC)c(Cl)c1O [DIF],differentiation of K562 cells,[2],differentiate and recover the capacity to synthesize haemoglobin
COc1cccc2c1C(=O)c1c(O)c3c(c(O)c1C2=O)C[C@@](O)(C(=O)CO)C[C@@H]3O[C@H]1C[C@H](N)[C@H](O)[C@H](C)O1 [Doxorubicine],release of the molecule into vesicles,[3],"also released into “12,000” vesicles"
"CCOc1ccc(-c2nc3ccc(-c4nc5ccc(N6CCN(C)CC6)cc5[nH]4)cc3[nH]2)cc1 [HO342, Hoechst 33342]",cytotoxicity during incubation with Dd cells in the growth medium,"[1]; HO342 10 μg/ml, continuously since initiation of culture",absence of cytotoxicity
